Laboratory results taken from ChEMBL document CHEMBL1130817, “Sulfonamide derivatives of benzylamine block cholesterol biosynthesis in HepG2 cells: a new type of potent squalene epoxidase inhibitors” (Bioorg Med Chem Lett, 1998).

What was measured:
[1] = target: Squalene monooxygenase (Homo sapiens, UniProt Q14534); assay: In vitro inhibition of cholesterol biosynthesis in human HepG2 cells.; type: functional, cell-based
[2] = target: Squalene monooxygenase (Rattus norvegicus) (UniProt P52020); assay: Compound was evaluated in vivo for the inhibition of rat squalene epoxidase […]; Inactive; type: organism-based
[3] = target: Squalene monooxygenase (Rattus norvegicus, UniProt P52020); assay: In vitro inhibition of rat liver squalene epoxidase […]; type: cell-based
[4] = target: Squalene monooxygenase (Rattus norvegicus) (UniProt P52020); assay: Compound was evaluated in vivo for the inhibition of rat mammalian squalene epoxidase […]; type: organism-based

Squalene monooxygenase (Homo sapiens, UniProt Q14534), sequence (Q14534 whole entry): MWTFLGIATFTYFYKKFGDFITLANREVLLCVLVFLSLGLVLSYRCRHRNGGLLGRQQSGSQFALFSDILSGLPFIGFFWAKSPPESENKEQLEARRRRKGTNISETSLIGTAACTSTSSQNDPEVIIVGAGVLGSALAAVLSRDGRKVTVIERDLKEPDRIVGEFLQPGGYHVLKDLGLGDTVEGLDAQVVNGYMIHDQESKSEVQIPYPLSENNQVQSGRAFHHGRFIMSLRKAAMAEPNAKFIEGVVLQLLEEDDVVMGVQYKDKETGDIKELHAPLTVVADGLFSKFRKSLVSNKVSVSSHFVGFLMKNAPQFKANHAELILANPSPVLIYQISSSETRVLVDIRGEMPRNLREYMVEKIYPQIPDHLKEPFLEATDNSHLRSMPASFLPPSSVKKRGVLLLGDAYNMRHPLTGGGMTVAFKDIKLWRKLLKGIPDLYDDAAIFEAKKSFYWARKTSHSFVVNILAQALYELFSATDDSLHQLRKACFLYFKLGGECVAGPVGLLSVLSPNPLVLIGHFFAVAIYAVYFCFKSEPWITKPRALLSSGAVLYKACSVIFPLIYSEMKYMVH
Squalene monooxygenase (Rattus norvegicus), sequence (P52020 whole entry, looked up): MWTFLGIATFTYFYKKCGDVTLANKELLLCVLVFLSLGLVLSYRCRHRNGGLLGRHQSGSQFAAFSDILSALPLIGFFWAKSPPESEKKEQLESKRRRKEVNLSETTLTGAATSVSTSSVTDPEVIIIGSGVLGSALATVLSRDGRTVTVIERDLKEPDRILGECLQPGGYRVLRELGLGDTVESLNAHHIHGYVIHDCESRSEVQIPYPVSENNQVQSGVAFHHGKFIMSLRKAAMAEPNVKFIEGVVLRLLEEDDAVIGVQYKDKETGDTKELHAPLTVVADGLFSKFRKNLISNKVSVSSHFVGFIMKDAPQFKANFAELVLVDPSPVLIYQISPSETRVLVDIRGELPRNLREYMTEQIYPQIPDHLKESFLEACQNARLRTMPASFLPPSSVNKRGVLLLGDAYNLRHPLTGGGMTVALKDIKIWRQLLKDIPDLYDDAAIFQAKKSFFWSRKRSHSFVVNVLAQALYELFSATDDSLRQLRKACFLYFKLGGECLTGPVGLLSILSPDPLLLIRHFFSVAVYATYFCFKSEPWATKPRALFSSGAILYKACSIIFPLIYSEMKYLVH
Squalene monooxygenase (Rattus norvegicus, UniProt P52020), sequence (P52020 whole entry): as the sequence (P52020 whole entry, looked up) above

Row | Structure (SMILES) | IC50 [1] | further results
1 | CCN(C/C=C/C#CC(C)(C)C)Cc1cccc(OCCN(C)S(=O)(=O)c2cc(Br)cs2)c1 | 300 nM | 
2 | CCN(C/C=C/C#CC(C)(C)C)Cc1cccc(OCCN(C)S(=O)(=O)c2ccc(C#N)cc2)c1 | 200 nM | 
3 | CCN(C/C=C/C#CC(C)(C)C)Cc1cccc(OCCN(C)S(=O)(=O)c2cccnc2)c1 | 150 nM | 
4 | CCN(C/C=C/C#CC(C)(C)C)Cc1cccc(OCCN(CC)S(=O)(=O)c2cccs2)c1 | 90 nM | 
5 | CCN(C/C=C/C#CC(C)(C)C)Cc1cccc(OCCN(C)S(=O)(=O)c2ccc(Br)cc2)c1 | 330 nM | 
6 | CCN(C/C=C/C#CC(C)(C)C)Cc1cccc(OCCN(C)S(=O)(=O)c2cccs2)c1 | 60 nM | ED50 [2]: 40 mg/kg; IC50 [3]: 6000 nM
7 | CCN(C/C=C/C#CC(C)(C)C)Cc1cccc(OCCN(C)S(=O)(=O)c2ccc(F)cc2)c1 | 255 nM | 
8 | CCN(C/C=C/C#CC(C)(C)C)Cc1cccc(OCCCS(=O)(=O)c2cccs2)c1 | 290 nM | 
9 | CCN(C/C=C/C#CC(C)(C)C)Cc1cccc(OCc2cc(-c3ccsc3)cs2)c1 |  | ED50 [4]: 2.5 mg/kg
10 | CCN(C/C=C/C#CC(C)(C)C)Cc1cccc(OCCN(C)S(=O)(=O)c2ccc(-c3ccsc3)s2)c1 | 210 nM | 
11 | CCN(C/C=C/C#CC(C)(C)C)Cc1cccc(OCCN(C)S(=O)(=O)c2nccs2)c1 | 170 nM | 
12 | CCN(C/C=C/C#CC(C)(C)C)Cc1cccc(OCCN(C)S(=O)(=O)c2cc3ccccc3s2)c1 | 1800 nM | 
13 | CCN(C/C=C/C#CC(C)(C)C)Cc1cccc(OCCN(C)S(=O)(=O)c2ccc(-c3cccs3)s2)c1 | 10000 nM | 

Further molecules by falling IC50 [1], results first:

Row | IC50 [1] | Structure (SMILES) | further results
14 | 6400 nM | CCN(C/C=C/C#CC(C)(C)C)Cc1cccc(OCCCN(C)S(=O)(=O)c2cccs2)c1 | 
15 | 450 nM | CCN(C/C=C/C#CC(C)(C)C)Cc1cccc(OCCNS(=O)(=O)c2cccs2)c1 | 
16 | 390 nM | CCN(C/C=C/C#CC(C)(C)C)Cc1cccc(OCCN(C)S(=O)(=O)c2ccc(Br)s2)c1 | 
17 | 250 nM | CCN(C/C=C/C#CC(C)(C)C)Cc1cccc(OCCN(C)S(=O)(=O)c2ccsc2)c1 | 
18 | 230 nM | CCN(C/C=C/C#CC(C)(C)C)Cc1cccc(OCCN(C2CC2)S(=O)(=O)c2cccs2)c1 | 
19 | 200 nM | CCN(C/C=C/C#CC(C)(C)C)Cc1cccc(OCCN(C)S(=O)(=O)Cc2cccs2)c1 | 
20 | 170 nM | CCCN(CCOc1cccc(CN(CC)C/C=C/C#CC(C)(C)C)c1)S(=O)(=O)c1cccs1 | 
21 | 90 nM | CCN(C/C=C/C#CC(C)(C)C)Cc1cccc(OCCN(C)S(=O)(=O)c2cc(-c3ccsc3)cs2)c1 | 
